Measured values as given in patent publication US7220745B2, “Heterocyclic compounds useful to treat HCV” (Rigel Pharmaceuticals, priority 2003, dated 2007).

Test system: HCV replicon
Experiment: HCV replicon assay (luciferase, 5-2 Luc replicon cells)
Type: cell-based
Details: Hepatitis C virus, 24 hours with compound, luciferase activity
From the text: In one embodiment, the inhibitory activity of the compounds can be confirmed in a replicon assay that assesses the ability of a test compound to block or inhibit HCV replication in replicon cells. One example of a suitable replicon assay is the liver cell-line Huh 7-based replicon assay described in Lohmann et al., 1999, Science 285:110–113. A specific example of this replicon assay which utilizes luciferase translation is provided in the Examples Section. In one embodiment of this assay, the amount of test compound that yields a 50% reduction in translation as compared to a control cell (IC50) may be determined.
The inhibitory activity of certain exemplary compounds of the invention was confirmed using an HCV replicon assay. The HCV replicon can include such features as the HCV 5′ untranslated region including the HCV IRES, the HCV 3′ untranslated region, selected HCV genes encoding HCV polypeptides, selectable markers, and a reporter gene such as luciferase, GFP, etc. In the assay, actively dividing 5–2 Luc replicon-comprising cells (obtained from Ralf Bartenschlager; see Lohmann et al., 1999, Science 285:110–113) were seeded at a density of between about 5,000 and 7,500 cells/well onto 96 well plates (about 90 μl of cells per well) and incubated at 37° C. and 5% CO2 for 24 hours. Then, the test compound (in a volume of about 10 μl) was added to the wells at various concentrations and the cells were incubated for an additional 24 hours before luciferase assay. Briefly, the Bright-Glo reagent was diluted 1:1 with PBS and 100 μl of diluted reagent was added to each well. After 5 min of incubation at room temperature, luciferin emission was quantified with a luminometer. In this assay, the amount of test compound that yielded a 50% reduction in luciferase activity (IC50) was determined.

SMILES | IC50
O=C(Nc1ccc(-c2cc(-c3c(F)cccc3F)no2)cc1)C(Cl)Cl [Compound 59, 2,2-Dichloro-N-[4-[3-(2,6-difluorophenyl)-5-isoxazolyl]phenyl]Acetamide] | ≤ 10 µM
O=[N+]([O-])c1cccc(-c2cnc(-c3c(Cl)cccc3Cl)s2)c1 [Compound 17, 2-(2,6-dichlorophenyl)-5-(3-nitrophenyl)thiazole] | > 10 µM
O=C(Nc1ccccc1-c1cc(-c2c(Cl)cccc2Cl)no1)C(Cl)Cl [Compound 18, 2,2-Dichloro-N-[2-[3-(2,6-dichlorophenyl)-5-isoxazolyl]phenyl]Acetamide] | > 10 µM
O=C(Nc1ccc(-c2cc(-c3c(Cl)cccc3Cl)no2)cc1)C(Cl)Cl [Compound 60, 2,2-Dichloro-N-[4-[3-(2,6-dichlorophenyl)-5-isoxazolyl]phenyl]Acetamide] | > 10 µM
O=C(Nc1cccc(-c2cnc(-c3c(Cl)cccc3Cl)s2)c1)C(Cl)Cl [Compound 19, 2,2-Dichloro-N-[3-[2-(2,6-dichlorophenyl)-5-thiazolyl]phenyl]Acetamide] | > 10 µM
Nc1cccc(-c2cnc(-c3c(Cl)cccc3Cl)s2)c1 [Compound 20, 2-(2,6-dichlorophenyl)-5-(3-aminophenyl)thiazole] | > 10 µM
O=C(Nc1ccc(-c2cc(-c3ccccc3Cl)no2)cc1)C(Cl)Cl [Compound 55, 2,2-Dichloro-N-[4-[3-(2-chlorophenyl)-5-isoxazolyl]phenyl]Acetamide] | ≤ 10 µM
O=C(Nc1cccc(-c2cc(-c3c(Cl)cccc3Cl)on2)c1)C(Cl)Cl [Compound 39, 2,2-Dichloro-N-[3-[5-(2,6-dichlorophenyl)-3-isoxazolyl]phenyl]Acetamide] | < 10 µM
